Reference: patent US20230183193A1, “4-DIFLUOROMETHYL BENZOYL AMIDES WITH HERBICIDAL ACTION” (BAYER CROPSCIENCE AKTIENGESELLSCHAFT, priority 2017, published 2023)

How the values were obtained:
Format in all cases: in vivo
Abutilon theophrasti [1] = experiment: Pre-emergence herbicidal action, ABUTH; settings: dosage 320 g/ha, scored visually after 3 weeks vs untreated controls
Text: (§1) 1. Pre-Emergence Herbicidal Action Against Harmful Plants Seeds of monocotyledonous and dicotyledonous weed plants and crop plants are laid out in sandy loam soil in wood-fiber pots and covered with soil. The compounds of the invention, formulated in the form of wettable powders (WP) or as emulsion concentrates (EC), are then applied to the surface of the covering soil in the form of an aqueous suspension or emulsion at a water application rate equating to […], with addition of 0.2% wetting agent. After the treatment, the pots are placed in a greenhouse and kept under good growth conditions for the trial plants. The damage to the test plants is scored visually after a test period of 3 weeks by comparison with untreated controls (herbicidal activity in percent (%): 100% activity=the plants have died, 0% activity=like control plants).
(§2) For comparison, the herbicidal activity of numerous compounds according to the invention was tested with the structurally closest compounds known from the documents WO 2011/035874, WO 2012/028579 and WO 2012/126932, by the pre- and post-emergence method.

Amaranthus retroflexus [2] = experiment: Pre-emergence herbicidal action, AMARE; settings: dosage 320 g/ha, scored visually after 3 weeks vs untreated controls
Text: as §1, §2

Cyperus serotinus = experiment: Pre-emergence herbicidal action, CYPES; settings: dosage 320 g/ha, scored visually after 3 weeks vs untreated controls
Text: as §1, §2

Matricaria inodora = experiment: Pre-emergence herbicidal action, MATIN; settings: dosage 320 g/ha, scored visually after 3 weeks vs untreated controls
Text: as §1, §2

Setaria viridis [3] = experiment: Pre-emergence herbicidal action, SETVI; settings: dosage 320 g/ha, scored visually after 3 weeks vs untreated controls
Text: as §1, §2

Stellaria media [4] = experiment: Pre-emergence herbicidal action, STEME; settings: dosage 320 g/ha, scored visually after 3 weeks vs untreated controls
Text: as §1, §2

Viola tricolor [5] = experiment: Pre-emergence herbicidal action, VIOTR; settings: dosage 320 g/ha, scored visually after 3 weeks vs untreated controls
Text: as §1, §2

Amaranthus retroflexus [6] = experiment: Post-emergence herbicidal action, AMARE; settings: 80 g/ha, Table D
Experimental: (§3) Seeds of monocotyledonous and dicotyledonous weed and crop plants are laid out in sandy loam soil in wood-fiber pots, covered with soil and cultivated in a greenhouse under good growth conditions. 2 to 3 weeks after sowing, the test plants are treated at the one-leaf stage. The compounds of the invention, formulated in the form of wettable powders (WP) or as emulsion concentrates (EC), are then sprayed onto the green parts of the plants in the form of an aqueous suspension or emulsion at a water application rate equating to […], with addition of 0.2% wetting agent. After the test plants have been left to stand in the greenhouse under optimal growth conditions for about 3 weeks, the action of the preparations is assessed visually in comparison to untreated controls (herbicidal action in percent (%): 100% activity=the plants have died, 0% activity=like control plants). […] At the same time, inventive compounds leave Gramineae crops such as barley, wheat, rye, millet/sorghum, corn or rice virtually undamaged when applied post-emergence, even at high active compound dosages. In addition, some substances are also harmless to dicotyledonous crops such as soya, cotton, oilseed rape, sugar beet or potatoes. Some of the compounds according to the invention have high selectivity and are therefore suitable for controlling unwanted vegetation in agricultural crops by the post-emergence method. The data of Tables C and D below illustrate, in an exemplary manner, the […] herbicidal action of the compounds according to the invention, the herbicidal activity being stated in percent.
as §2

Pharbitis purpureum = experiment: Post-emergence herbicidal action, PHBPU; settings: 80 g/ha, Table D
Experimental: as §3, §2

Stellaria media [7] = experiment: Post-emergence herbicidal action, STEME; settings: 80 g/ha, Table D
Experimental: as §3, §2

Viola tricolor [8] = experiment: Post-emergence herbicidal action, VIOTR; settings: 80 g/ha, Table D
Experimental: as §3, §2

Abutilon theophrasti [9] = experiment: Post-emergence herbicidal action, ABUTH; settings: 80 g/ha, Table D
Experimental: as §3, §2

Alopecurus myosuroides = experiment: Pre-emergence herbicidal action, ALOMY; settings: dosage 320 g/ha, scored visually after 3 weeks vs untreated controls
Text: as §1, §2

Avena fatua = experiment: Pre-emergence herbicidal action, AVEFA; settings: dosage 320 g/ha, scored visually after 3 weeks vs untreated controls
Text: as §1, §2

Setaria viridis [10] = experiment: Post-emergence herbicidal action, SETVI; settings: 80 g/ha, Table C
Experimental: as §3, §2

ECHCG = experiment: Post-emergence herbicidal action, ECHCG; settings: 80 g/ha, Table C
Experimental: as §3

Cn1ncnc1NC(=O)c1ccc(C(F)F)c(S(C)(=O)=O)c1I [Example 4-75]
herbicidal activity ABUTH (Abutilon theophrasti [1]): 100%
herbicidal activity AMARE (Amaranthus retroflexus [2]): 100%
herbicidal activity CYPES (Cyperus serotinus): 80%
herbicidal activity MATIN (Matricaria inodora): 100%
herbicidal activity SETVI (Setaria viridis [3]): 90%
Herbicidal activity STEME (Stellaria media [4]): 100%
herbicidal activity VIOTR (Viola tricolor [5]): 90%
herbicidal activity AMARE (Amaranthus retroflexus [6]): 100%
Herbicidal activity PHBPU (Pharbitis purpureum): 80%
Herbicidal activity STEME (Stellaria media [7]): 90%
herbicidal activity VIOTR (Viola tricolor [8]): 80%

Cn1nnnc1NC(=O)c1ccc(C(F)F)c(S(C)(=O)=O)c1I [Example 1-75]
herbicidal activity ABUTH (Abutilon theophrasti [1]): 90%
herbicidal activity AMARE (Amaranthus retroflexus [2]): 90%
herbicidal activity MATIN (Matricaria inodora): 90%
herbicidal activity SETVI (Setaria viridis [3]): 100%
Herbicidal activity STEME (Stellaria media [4]): 100%
herbicidal activity VIOTR (Viola tricolor [5]): 90%
herbicidal activity AMARE (Amaranthus retroflexus [6]): 90%
Herbicidal activity PHBPU (Pharbitis purpureum): 80%
Herbicidal activity STEME (Stellaria media [7]): 100%

Cn1ncnc1NC(=O)c1ccc(C(F)F)c(S(C)(=O)=O)c1F [Example 4-39]
herbicidal activity ABUTH (Abutilon theophrasti [1]): 100%
herbicidal activity AMARE (Amaranthus retroflexus [2]): 100%
herbicidal activity MATIN (Matricaria inodora): 90%
herbicidal activity SETVI (Setaria viridis [3]): 100%
Herbicidal activity STEME (Stellaria media [4]): 100%
herbicidal activity VIOTR (Viola tricolor [5]): 100%
herbicidal activity ABUTH (Abutilon theophrasti [9]): 90%
herbicidal activity AMARE (Amaranthus retroflexus [6]): 90%
Herbicidal activity PHBPU (Pharbitis purpureum): 90%
Herbicidal activity STEME (Stellaria media [7]): 100%
herbicidal activity VIOTR (Viola tricolor [8]): 90%

CCS(=O)(=O)c1c(C(F)F)ccc(C(=O)Nc2ncnn2C)c1C1CC1 [Example 4-30]
herbicidal activity ABUTH (Abutilon theophrasti [1]): 100%
herbicidal activity AMARE (Amaranthus retroflexus [2]): 90%
herbicidal activity CYPES (Cyperus serotinus): 80%
herbicidal activity MATIN (Matricaria inodora): 100%
Herbicidal activity STEME (Stellaria media [4]): 90%
herbicidal activity VIOTR (Viola tricolor [5]): 90%
herbicidal activity ABUTH (Abutilon theophrasti [9]): 80%
Herbicidal activity PHBPU (Pharbitis purpureum): 90%
Herbicidal activity STEME (Stellaria media [7]): 90%
herbicidal activity VIOTR (Viola tricolor [8]): 80%

CCSc1c(C(F)F)ccc(C(=O)Nc2ncnn2C)c1C1CC1 [Example 4-28]
herbicidal activity ABUTH (Abutilon theophrasti [1]): 100%
herbicidal activity AMARE (Amaranthus retroflexus [2]): 90%
herbicidal activity MATIN (Matricaria inodora): 90%
Herbicidal activity STEME (Stellaria media [4]): 90%
herbicidal activity VIOTR (Viola tricolor [5]): 100%
herbicidal activity AMARE (Amaranthus retroflexus [6]): 80%
Herbicidal activity PHBPU (Pharbitis purpureum): 90%
Herbicidal activity STEME (Stellaria media [7]): 100%
herbicidal activity VIOTR (Viola tricolor [8]): 80%

CC[S+]([O-])c1c(C(F)F)ccc(C(=O)Nc2nonc2Cl)c1C (stereo not shown) [Example 6-5]
herbicidal activity ABUTH (Abutilon theophrasti [1]): 100%
herbicidal activity ALOMY (Alopecurus myosuroides): 90%
herbicidal activity AMARE (Amaranthus retroflexus [2]): 100%
herbicidal activity AVEFA (Avena fatua): 90%
herbicidal activity MATIN (Matricaria inodora): 90%
herbicidal activity SETVI (Setaria viridis [3]): 100%
Herbicidal activity STEME (Stellaria media [4]): 90%
herbicidal activity VIOTR (Viola tricolor [5]): 100%
herbicidal activity ABUTH (Abutilon theophrasti [9]): 80%
herbicidal activity SETVI (Setaria viridis [10]): 90%
Herbicidal activity STEME (Stellaria media [7]): 90%
herbicidal activity VIOTR (Viola tricolor [8]): 100%
Herbicidal activity ECHCG (ECHCG): 100%

CSc1c(C(F)F)ccc(C(=O)Nc2ncnn2C)c1C1CC1 [Example 4-25]
herbicidal activity ABUTH (Abutilon theophrasti [1]): 90%
herbicidal activity AMARE (Amaranthus retroflexus [2]): 90%
herbicidal activity MATIN (Matricaria inodora): 90%
Herbicidal activity STEME (Stellaria media [4]): 90%
herbicidal activity VIOTR (Viola tricolor [5]): 100%
herbicidal activity AMARE (Amaranthus retroflexus [6]): 90%
Herbicidal activity PHBPU (Pharbitis purpureum): 80%
Herbicidal activity STEME (Stellaria media [7]): 100%
herbicidal activity VIOTR (Viola tricolor [8]): 90%

CC[S+]([O-])c1c(C(F)F)ccc(C(=O)Nc2ncnn2C)c1C1CC1 (stereo not shown) [Example 4-29]
herbicidal activity ABUTH (Abutilon theophrasti [1]): 100%
herbicidal activity AMARE (Amaranthus retroflexus [2]): 90%
herbicidal activity MATIN (Matricaria inodora): 90%
Herbicidal activity STEME (Stellaria media [4]): 90%
herbicidal activity VIOTR (Viola tricolor [5]): 100%
herbicidal activity ABUTH (Abutilon theophrasti [9]): 80%
herbicidal activity AMARE (Amaranthus retroflexus [6]): 80%
Herbicidal activity PHBPU (Pharbitis purpureum): 90%
Herbicidal activity STEME (Stellaria media [7]): 90%
herbicidal activity VIOTR (Viola tricolor [8]): 90%
